Assay [1] concerns the target T1, B2 bradykinin receptor (Homo sapiens, UniProt P30411).
T1 sequence (P30411 whole entry): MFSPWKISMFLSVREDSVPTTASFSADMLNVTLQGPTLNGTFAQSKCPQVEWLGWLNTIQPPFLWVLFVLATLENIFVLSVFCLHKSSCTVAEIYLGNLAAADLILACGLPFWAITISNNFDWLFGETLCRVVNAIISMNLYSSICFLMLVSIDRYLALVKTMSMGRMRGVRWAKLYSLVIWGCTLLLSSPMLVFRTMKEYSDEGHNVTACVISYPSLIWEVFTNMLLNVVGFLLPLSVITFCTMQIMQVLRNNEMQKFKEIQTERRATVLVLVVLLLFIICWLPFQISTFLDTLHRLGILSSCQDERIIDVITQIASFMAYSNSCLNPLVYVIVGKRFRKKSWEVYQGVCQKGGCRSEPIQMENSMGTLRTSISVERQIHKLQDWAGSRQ
Kind of assay: ChEBML_40431. The source says:
(§1) Tested for binding affinity against human IMR-90 Bradykinin receptor B2

Assay [2] has as its target T1, B2 bradykinin receptor. Described as §1.

pKi: −log10 of the molar value.

By pKi is commonly meant −log10 of the Ki, conventionally taken in molar units. With `CCCC[P+](CCCC)(CCCC)Cc1ccc(NC(=O)C2Cc3ccccc3CN2C(=O)[C@H](CCc2ccccc2)N/C(=N/C2CCCCC2)NC2CCCCC2)cc1` (stereo partly drawn) [tributyl[(4-{2-[(2S)-2-{[(1E)-(cyclohexylamino)(cyclohexyliminiumyl)methyl]amino}-4-phenylbutanoyl]-1,2,3,4-tetrahydroisoquinoline-3-amido}phenyl)methyl]phosphanium dichloride], the negative logarithm of the Ki (pKi) in assay [1] and in assay [2] was 6.00 each time.

These data come from BindingDB's records for doi:10.1016/0960-894X(95)00037-T (1995).
